Values after ≈ are worked out from the molar mass of the structure shown.

The test system of test [1] is Candida albicans. The experiment in a line: Antimicrobial activity against Candida albicans by agar dilution method. The class given is functional.
Test [2] relates to Pseudomonas aeruginosa. The experiment in a line: Antimicrobial activity against Pseudomonas aeruginosa by agar dilution method. The class given is functional. A general note: In agar dilution the substance is mixed into plates at graded concentrations.
Test [3] relates to Staphylococcus aureus. As to the kind of experiment: Antimicrobial activity against Staphylococcus aureus by agar dilution method. The class given is functional.
Test [4] concerns Bacillus subtilis. As to the kind of experiment: Antimicrobial activity against Bacillus subtilis by agar dilution method. The class given is functional.
Test [5] relates to A549. As to the kind of experiment: Cytotoxicity against human A549 cells by SRB assay. The class given is functional, cell-based. For orientation: The SRB assay estimates cell density from bound dye.
The test system of test [6] is Escherichia coli. As to the kind of experiment: Antimicrobial activity against Escherichia coli by agar dilution method. The class given is functional.
Test [7] concerns HL-60. As to the kind of experiment: Cytotoxicity against human HL60 cells by MTT assay. The class given is functional, cell-based. A general note: Formazan colour is commonly taken as a measure of viable cells.
For test [8], the system named is Klebsiella aerogenes. The experiment in a line: Antimicrobial activity against Enterobacter aerogenes by agar dilution method. The class given is functional.
Test [9] relates to P388. The experiment in a line: Cytotoxicity against mouse P388 cells by MTT assay. The class given is functional, cell-based.
The test system of test [10] is HeLa. As to the kind of experiment: Cytotoxicity against human HeLa cells by MTT assay. The class given is functional, cell-based.

As for `CCC[C@H](O)c1ccc(=O)[nH]c1C` [CHRYSOGEDONE A], the MIC in test [1], in test [2], in test [3], in test [4], in test [6] and in test [8] was greater than 150 µM in each case. The IC50 in [5] and in test [7] was greater than 50 µM in each case.

Turning to `CCC[C@H](O)c1ccc(=O)[nH]c1CO` [CHRYSOGEDONE B], the MIC in test [1], in [2], in [3], in test [4], in test [6] and in test [8] was greater than 150 µM each time. The IC50 in test [5] and in test [7] was greater than 50 µM throughout.

With `CCCCCCC/C=C\CC/C=C/[C@@H](O)[C@H](CO[C@@H]1O[C@H](CO)[C@@H](O)[C@H](O)[C@H]1O)NC(=O)[C@H](O)/C=C/CCCCCCCCCCCCCC` [CHRYSOGESIDE A], the half-inhibitory concentration (IC50) in [9] and in test [10] was greater than 50 µM throughout. The minimum inhibitory concentration (MIC) in test [1], in test [2], in test [3], in [4], in [6] and in test [8] was greater than 150 µM each time.

In the case of `CCCCCCCCCCCCCCC/C=C/[C@@H](O)C(=O)N[C@@H](CO[C@@H]1O[C@H](CO)[C@@H](O)[C@H](O)[C@H]1O)[C@H](O)/C=C/CC/C=C(\C)CCCCC` [CHRYSOGESIDE C], the IC50 in test [9] and in test [10] was greater than 50 µM each time. Further, the MIC in [1], in test [2], in [3], in test [4], in test [6] and in test [8] was greater than 150 µM each time.

For the compound `CCCCCCCCCCCCCCCCC[C@@H](O)C(=O)N[C@@H](CO[C@@H]1O[C@H](CO)[C@@H](O)[C@H](O)[C@H]1O)[C@H](O)/C=C/CC/C=C(\C)CCCCCC` [CHRYSOGESIDE E], the IC50 in test [9] and in test [10] was greater than 50 µM in each case. In addition, the MIC in test [1], in [2], in [3], in test [4], in [6] and in test [8] was greater than 150 µM each time.

Turning to `CCCCCCCCCCCCCCC/C=C/[C@@H](O)C(=O)N[C@@H](CO[C@@H]1O[C@H](CO)[C@@H](O)[C@H](O)[C@H]1O)[C@H](O)/C=C/CC/C=C(\C)CCCCCC` [CHRYSOGESIDE B], the IC50 in test [9] and in test [10] was greater than 50 µM throughout. For the same compound, the minimal inhibitory concentration (MIC) in [1] is greater than 150 µM; in test [2] it was greater than 150 µM; in [3], greater than 150 µM; in test [4], greater than 150 µM; in test [6], greater than 150 µM; in [8], 1.72 µM (≈ 1.25 µg/mL).

Take `CCCCCCCCCCCCCCC/C=C/[C@@H](O)C(=O)N[C@@H](CO[C@@H]1O[C@H](CO)[C@@H](O)[C@H](O)[C@H]1O)[C@H](O)/C=C/CC/C=C(\C)CCCCCCCC` [CHRYSOGESIDE D]: the IC50 in test [9] and in [10] was greater than 50 µM throughout. Further, the MIC in [1], in [2], in test [3], in test [4], in test [6] and in test [8] was greater than 150 µM throughout.

In general, MIC refers to the smallest concentration in the dilution series that meets the test's criterion for growth inhibition. Broadly, the IC50 is the midpoint of a concentration-inhibition curve. Low readings indicate greater potency, high ones weaker potency.

Source of the values: ChEMBL document CHEMBL1799957, “Cerebrosides and 2-pyridone alkaloids from the halotolerant fungus Penicillium chrysogenum grown in a hypersaline medium” (J Nat Prod, 2011).
